According to ChEMBL document CHEMBL1201862, “PubChem BioAssay data set” (2004):
Values joined by “and” are separate entries in the source; they are usually repeats but may differ in a detail not shown here. Identical values can stand only once.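 48-hour exposure; five concentrations; linearly interpolated endpoints. Here, GI50 denotes the concentration required for 50% inhibition of growth.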 Active and inactive are the calls of the source. Cut-off read from the data, not from the text of the source: active = GI50 up to about 1.1 µM and inactive = higher.

What was measured:
Experiment in all cases: DTP human tumour cell line panel, 48 h
HOP-92 = test system: HOP-92
ACHN = test system: ACHN
SF-295 = test system: SF-295
SR = test system: SR
IGROV-1 = test system: IGROV-1
SF-539 = test system: SF-539
SN12C = test system: SN12C
M14 = test system: M14
TK-10 = test system: TK-10
MOLT-4 = test system: MOLT-4
U-251 = test system: U-251
NCI-H460 = test system: NCI-H460
SW-620 = test system: SW-620
NCI-H23 = test system: NCI-H23
COLO 205 = test system: COLO 205
NCI/ADR-RES = test system: NCI/ADR-RES
MDA-MB-231 = test system: MDA-MB-231
OVCAR-4 = test system: OVCAR-4
Hs-578T = test system: Hs-578T

Measured: GI50

COC1=CC23C=CC1[C@@H](c1ccccc1)C2=C(C)C(=O)N3C(=O)NC1CCCCC1 (some centres undefined)
inactive: HOP-92 19 µM | ACHN 30.9 µM | SF-295 22.4 µM | SR 20.2 µM | IGROV-1 61.2 µM | SF-539 19.4 µM | SN12C > 10 µM | M14 19 µM | TK-10 26.7 µM | MOLT-4 18 µM | U-251 16.5 µM | NCI-H460 20.1 µM | SW-620 19.5 µM | NCI-H23 18.5 µM

COc1ccc([C@]23CCN(S(=O)(=O)c4ccc(C)cc4)[C@H]2[C@H](CO)C2(CC3)OCC(C)(C)CO2)cc1OC
inactive: HOP-92 > 100 µM | ACHN > 100 µM | COLO 205 > 100 µM | SF-295 > 100 µM | SR > 100 µM | IGROV-1 > 100 µM | SN12C > 100 µM | M14 > 100 µM | TK-10 > 100 µM | NCI/ADR-RES > 100 µM | MOLT-4 > 100 µM | U-251 > 100 µM | NCI-H460 > 100 µM | MDA-MB-231 > 100 µM | SW-620 > 100 µM | NCI-H23 > 100 µM | OVCAR-4 > 100 µM

O=C1C=C(Nc2ccccc2C(=O)CC(=O)C(=O)Nc2ccc(Cl)c(Cl)c2)c2ccccc2C1=O
inactive: HOP-92 75.9 µM | ACHN 73.5 µM | COLO 205 > 100 µM | SF-295 59 µM | SR 5 µM | IGROV-1 > 100 µM | SF-539 51.2 µM | SN12C 35.1 µM | M14 32.1 µM | MOLT-4 3.72 µM | U-251 34.7 µM | NCI-H460 36.2 µM | NCI-H23 21.1 µM | OVCAR-4 59.4 µM

C=C1C(=O)OC2/C=C(/C)C3(O)OC(C)(CC(OC(=O)C(C)C)C12)CC3OC(C)=O (centres undefined)
inactive: HOP-92 13.3 µM | ACHN 2.3 µM | COLO 205 3.84 µM | SF-295 9.75 µM | SR 2.52 µM | IGROV-1 4.5 µM | SF-539 3.05 µM | SN12C 4.9 µM | M14 6.92 µM | TK-10 5.82 µM | NCI/ADR-RES 11.9 µM | MOLT-4 4.36 µM | U-251 8 µM | NCI-H460 3.9 µM | MDA-MB-231 12.5 µM | SW-620 4.19 µM | NCI-H23 3.34 µM | OVCAR-4 13.2 µM

CC1(C(=O)O)CCC2(C)CCC3(C)C(=CC(=O)C4C5(C)CCC(O)C(C)(C)C5CCC43C)C2C1 (centres undefined)
inactive: ACHN 22.6 µM | COLO 205 38.8 µM | SF-295 26.5 µM | SR 24.3 µM | SF-539 17.6 µM | SN12C 41.8 µM | M14 36.3 µM | TK-10 35.7 µM | NCI/ADR-RES 46 µM | MOLT-4 36.2 µM | Hs-578T 28.6 µM | U-251 43.1 µM | SW-620 37.5 µM | NCI-H23 21.2 µM | OVCAR-4 42.8 µM

O=c1[nH]nc(Cc2ccccc2)[nH]1
inactive: HOP-92 > 100 µM | ACHN > 100 µM | COLO 205 > 100 µM | SF-295 > 100 µM | SR 44.6 µM | IGROV-1 > 100 µM | SF-539 > 100 µM | SN12C > 100 µM | M14 > 100 µM | TK-10 > 100 µM | NCI/ADR-RES > 100 µM | MOLT-4 > 100 µM | Hs-578T > 100 µM | U-251 > 100 µM | NCI-H460 > 100 µM | SW-620 > 100 µM | NCI-H23 > 100 µM | OVCAR-4 > 100 µM

Cc1cn(C2CC(N(O)Cc3ccccc3)C(CO[Si](C)(C)C(C)(C)C)O2)c(=O)[nH]c1=O (centres undefined)
inactive: HOP-92 16 µM and 18.7 µM | ACHN 26.7 µM and 17.6 µM | COLO 205 18.5 µM and 20.9 µM | SF-295 17.2 µM and 18.8 µM | SR 31.6 µM | IGROV-1 15.7 µM and 25.5 µM | SF-539 15.5 µM and 18.1 µM | SN12C 16 µM and 16.1 µM | M14 16.6 µM and 19.5 µM | MOLT-4 40.2 µM and 57.3 µM | Hs-578T 18.4 µM and 16.5 µM | U-251 15.1 µM and 19.6 µM | NCI-H460 17.9 µM and 17.7 µM | MDA-MB-231 16.8 µM and 16.5 µM | SW-620 19.4 µM and 25.8 µM | NCI-H23 26.6 µM and 16.7 µM | OVCAR-4 23.7 µM and 17.4 µM

O=[N+]([O-])c1cccc(-c2ncnc(-c3cccc([N+](=O)[O-])c3)n2)c1
inactive: HOP-92 19.5 µM | COLO 205 > 100 µM | SF-295 41.6 µM | IGROV-1 > 100 µM | SN12C > 100 µM | M14 > 100 µM | TK-10 44.5 µM | NCI/ADR-RES > 100 µM | MOLT-4 > 100 µM | Hs-578T 51.2 µM | U-251 23.5 µM | MDA-MB-231 34.9 µM | SW-620 > 100 µM | NCI-H23 58.5 µM

COc1cc(NC(C)=O)ccc1C(=O)N/N=C/c1ccco1
inactive: HOP-92 > 100 µM | ACHN 63 µM | COLO 205 31.8 µM | SF-295 > 100 µM | SR 26.7 µM | IGROV-1 > 100 µM | SF-539 44.2 µM | SN12C > 100 µM | M14 > 100 µM | NCI/ADR-RES > 100 µM | MOLT-4 31.3 µM | Hs-578T > 100 µM | SW-620 > 100 µM | NCI-H23 > 100 µM | OVCAR-4 > 100 µM

CCOC(=O)CCC(C(=O)OCC)n1nnc2ccc(Nc3c(C)[n+]([O-])c4ccc(Cl)cc4[n+]3[O-])cc21 (centres undefined)
inactive: HOP-92 23.8 µM | ACHN 28.6 µM | COLO 205 37.4 µM | SF-295 27.8 µM | SR 33 µM | IGROV-1 40.5 µM | SF-539 38.5 µM | SN12C 46.2 µM | M14 37.5 µM | TK-10 66.2 µM | NCI/ADR-RES 28.3 µM | MOLT-4 34.5 µM | Hs-578T > 100 µM | U-251 46.3 µM | NCI-H460 49.7 µM | SW-620 54 µM | NCI-H23 33.5 µM | OVCAR-4 33.8 µM

COC12CC(O)=C(C(C)=O)C(=O)C1(C)c1c(OC(C)=O)c(C)c(O)c(C(C)=O)c1O2 (centres undefined)
inactive: HOP-92 18.4 µM | ACHN 12.3 µM | SF-295 8.09 µM | SR 18.5 µM | IGROV-1 7.89 µM | SF-539 21.6 µM | SN12C 11.6 µM | M14 22.5 µM | TK-10 25.4 µM | MOLT-4 18.6 µM | U-251 9.25 µM | NCI-H460 13.2 µM | SW-620 22.7 µM | NCI-H23 4.86 µM | OVCAR-4 18.7 µM

CS(=O)(=O)c1ccc(C(=O)O[C@@H]2C(=O)N3CC[C@H]4OC(O)[C@@H]2[C@H]43)cc1 (some centres undefined)
inactive: ACHN > 100 µM | COLO 205 > 100 µM | SF-295 > 100 µM | SR > 100 µM | SF-539 > 100 µM | M14 > 100 µM | TK-10 > 100 µM | NCI/ADR-RES > 100 µM | MOLT-4 > 100 µM | U-251 > 100 µM | NCI-H460 > 100 µM | MDA-MB-231 > 100 µM | SW-620 > 100 µM | NCI-H23 > 100 µM | OVCAR-4 > 100 µM

CC1=C(C(=O)Nc2ccc([N+](=O)[O-])cc2)C(c2cccc([N+](=O)[O-])c2)C(C(=O)Nc2ccc([N+](=O)[O-])cc2)=C(C)N1
inactive: HOP-92 5.31 µM | ACHN 20 µM | COLO 205 45.8 µM | SF-295 30.1 µM | IGROV-1 21.2 µM | SF-539 60.3 µM | SN12C 30.5 µM | M14 24.3 µM | TK-10 37.5 µM | MOLT-4 5.35 µM | U-251 9.71 µM | NCI-H460 27.7 µM | SW-620 31.9 µM | NCI-H23 13.3 µM | OVCAR-4 48.6 µM

COc1cc2c(c(O)c1OC)-c1c(cc(OC)c(OC)c1OC)CC(C)C(C)C2 (centres undefined) [GOMISIN K3]
inactive: HOP-92 36.7 µM | ACHN 39.1 µM | COLO 205 32 µM | SF-295 33.9 µM | SR 31.3 µM | IGROV-1 51.1 µM | SF-539 66.1 µM | SN12C 47.8 µM | M14 45.1 µM | TK-10 26.5 µM | MOLT-4 16.6 µM | Hs-578T 69.8 µM | U-251 49.9 µM | NCI-H460 31.2 µM | MDA-MB-231 37.8 µM | SW-620 70.3 µM | NCI-H23 49 µM | OVCAR-4 30.3 µM

CCOC(=O)C1=COC(C)(c2ccccc2)CC1=O (centres undefined)
inactive: ACHN > 100 µM | COLO 205 > 100 µM | SF-295 > 100 µM | SF-539 > 100 µM | SN12C > 100 µM | M14 > 100 µM | TK-10 > 100 µM | NCI/ADR-RES > 100 µM | MOLT-4 49.7 µM | Hs-578T 88.9 µM | U-251 > 100 µM | NCI-H460 > 100 µM | MDA-MB-231 > 100 µM | SW-620 > 100 µM | NCI-H23 > 100 µM | OVCAR-4 > 100 µM

C=CCOCn1ccc(NC(=O)c2ccccc2)nc1=O
inactive: ACHN > 100 µM | COLO 205 > 100 µM | SF-295 > 100 µM | SR > 100 µM | IGROV-1 > 100 µM | SF-539 > 100 µM | SN12C > 100 µM | M14 > 100 µM | TK-10 > 100 µM | MOLT-4 > 100 µM | Hs-578T > 100 µM | NCI-H460 > 100 µM | MDA-MB-231 > 100 µM | SW-620 > 100 µM | NCI-H23 > 100 µM
